One compound from patent US10647680B2, “Urea compound, preparation method therefor and medical use thereof” (Ancureall Pharmaceutical (Shanghai) Co., Ltd., priority 2016, dated 2020) can be followed below.

For one series, the system named is P-gp. Kind of series: Bidirectional transmembrane transport and P-gp efflux in Caco-2 monolayer cell model. Type of series: in vitro ADME. To be noted: human, Caco-2, pH 7.4; Concentration 10, Inhibitor − (without P-gp inhibitor GF120918); read-out: Efflux Ratio Papp (B→A)/Papp (A→B). The method, then:
(§1) The Caco-2 cell transport experiment was performed using compound 77 of the present invention as a representative example.
(§2) Main procedure: Caco-2 cells (ATCC, HTB-37) were cultured in high-glucose DMEM culture medium (Hyclone) containing 10% fetal calf serum (GIBCO) and penicillin-streptomycin (100 units/mL each) (Sigma). Cells were cultured at 37° C. in an incubator containing 5% CO2. In the transport experiment, Caco-2 cells were inoculated on a filter of a 12-well Transwell plate at a density of 2×10^5 cells/well (Coming Costar, catalog #3401, 1.12 cm^2, 0.4 um of pore size). After inoculation, the Caco-2 cells would form intact cell monolayers after 21 days, including P-gp efflux transporter expression and transepithelial cell resistance (TEER) formation. During the period, the culture medium was replaced once every other day. The volume of culture medium at the transwell membrane Apical Side (A) and Basolateral Side (B) were 0.5 mL and 1.5 mL, respectively. Before the transport experiment (day 21), the preheated HBSS buffer (137 mM NaCl, 4.17 mM NaHCO3, 0.34 mM Na2HPO4, 5.37 mM KCl, 0.44 mM KH2PO4, 1.26 mM CaCl2, 0.49 mM MgCl2, 0.41 mM MgSO4, 5.55 Mm D-Glucose, 10 mM HEPES, pH 7.4) was used firstly to wash Caco-2 cell monolayers for three times, and placed to at 37° C. for incubation for 30 minutes, then TEER values were determined using a cell resistometer (Millicell-ERS2) to confirm the integrity and compactness of the cell monolayers. When the HBSS buffer solution on the transmembrane A-side or B-side was replaced with the test compound, the transport experiment was started.
(§3) Finally, after incubation at 37° C. for 2 hours, the transport experiment was terminated and 50 uL of sample solution was taken from both sides of the Transwell filter membrane separately and added to 100 μL of acetonitrile comprising internal standard compound and mixed well, then centrifuged at 13000 rpm, 4° C. for 10 min, and finally 10 μL (or a specific volume) of supernatant was used for LC-MS/MS sample analysis.
(§4) For each compound, transport experiments in the A-B and B-A directions had three replicates, i.e. n=3.
(§5) LC-MS/MS Sample Analysis: The high performance liquid chromatography (HPLC) system used in this research consisted of two pumps (Shimadzu LC-20AD) and an autosampler (Shimadzu SIL-20AC). The HPLC system was connected in series with an API 4000 triple quadrupole mass spectrometer (Applied Biosystems). The API 4000 triple quadrupole mass spectrometer was equipped with an electrospray ionization (ESI) source. Ultrapurified nitrogen was used as curtain gas, GAS1, GAS2, and collision gas, at flow rates of 20 L/h, 55 L/h, 65 L/h, and 6 L/hr, respectively. The atomization temperature of the ion source was set to 500° C. Data was collected using the software Analyst 1.5.
(§6) Data analysis: The apparent permeability coefficient (Papp) can be calculated by the rate at which a compound permeates the monolayer of Caco-2 cells. Its value is related to the absorption of the compound in vivo. After concentrations at A side and B side were determined by LC-MS/MS, the Papp value in the A-B or B-A direction was calculated according to the following formula: Papp(A→B) or Papp(B→A)=(dQ/dt)/(A*C0)=(C2h*V)/(t*π2*C0)
(§7) In the above formula, dQ/dt is the permeation rate, i.e. the amount of compound that permeated in the dt time, C0 is the initial concentration of drug on the administration side, and A is the surface area of the cell monolayer, i.e. the membrane area.
(§8) After obtaining the Papp (A→B) and Papp (B→A) values of the compound, the Efflux Ratio (ER) of the compound could be calculated by the following formula: Efflux Ratio(ER)=Papp(B−A)/Papp(A−B).
(§9) When the ratio of efflux was >2, the compound could be considered as the substrate of the efflux transporter.

Assay in series [1]: as above
It counts as in vitro ADME. The following applies: human. The procedure: as §1, §2, §3, §4, §5, §6, §7, §8, §9

Molecules are shown by their SMILES. Where two headings read alike, the source gives them in different places.

As for `COCCOc1ccc2c(c1)ncn2-c1ccc(NC(=O)Nc2cc(C(C)(C)C)n[nH]2)cc1` [Compound 77, 1-(5-tert-butyl-2H-pyrazol-3-yl)-3-{4-[5-(2-methoxyl-ethoxyl)-benzimidazol-1-yl]-phenyl}-urea], the efflux ratio at 2 h in the series with P-gp stood at 5.8. The Papp A→B at 2 h is 1 to 10 ×10⁻⁶ cm/s in series [1] (Caco-2, pH 7.4, Caco-2 monolayer cell model, transmembrane permeability, read-out: Papp(A→B) value (conclusions under the table)) and 2.24 ×10⁻⁶ cm/s in series [1] (Caco-2, pH 7.4, Concentration 10, Inhibitor − (without P-gp inhibitor GF120918), read-out: Papp (A→B)). In series [1] (Caco-2, pH 7.4, Concentration 10, Inhibitor − (without P-gp inhibitor GF120918)), the Papp B→A at 2 h was found to be 13.1 ×10⁻⁶ cm/s.

One may read the Papp A→B as the apparent permeability from the apical to the basolateral side of a cell layer. The term Papp B→A denotes the apparent permeability from the basolateral to the apical side of a cell layer.
